According to patent US11160790B2, “Method of inhibiting Cryptococcus growth using eltrombopag” (priority 2019, dated 2021):
Values after ≈ are worked out from the molar mass of the structure shown.

Key:
Assay in all cases: Microdilution assay (CLSI M27-A3/M38-A2), MIC and MFC
Type in all cases: cell-based
[1] = system: Candida krusei ATCC6258; conditions: Pichia kudriavzevii, 35° C.
Protocol: (§1) Cryptococcus and Candida species were cultured in yeast extract-peptone-dextrose (YPD) medium (containing 1% yeast extract, 2% peptone, 2% glucose, and optionally 2% agar for preparation of an agar plate). Aspergillus, Fusarium, and Trichophyton species were cultured on potato dextrose agar (PDA) plate (containing 2% potato infusion, […], and 1.5% agar). A microdilution assay was performed to determine minimum inhibitory concentration (MIC), minimum fungicidal concentration (MFC), and fractional inhibitory concentration (FIC) index (FICI) using RPMI 1640 medium buffered with MOPS. Minimal medium (containing 15 mM glucose, 10 mM magnesium sulfate, 29.4 mM potassium dihydrogen phosphate, 13 mM glycine, and 3 μM thiamine hydrochloride; pH 5.5) was used for capsule size assay and melanization assay.
(§2) To investigate the inhibitory effects of eltrombopag on the growth of fungi, microdilution assays (based on the CLSI standards M27-A3 and M38-A2) were performed with multiple pathogenic yeasts and filamentous fungi including Cryptococcus, Candida, Aspergillus, Fusarium, and Trichophyton (TABLE 1). Briefly, yeast or filamentous fungi strains at a final concentration of about 10^3 cfu/mL were inoculated in RPMI 1640 medium containing two-fold serially diluted eltrombopag (started at 64 mg/L). In addition, fungal cultures without eltrombopag were used as positive controls, while media without fungal cells and eltrombopag were used as negative controls. The 96-well plates loaded with the aforementioned cultures were incubated at 35° C. for 48 hours, and the growth of cells in each well was examined to determine the minimum inhibitory concentration (MIC) of eltrombopag, which was the lowest drug concentration at which there was no visible cell growth. Thereafter, 3 μL of the fungal culture from each well of the 96-well plates was spotted onto eltrombopag-free YPD (for yeasts) or PDA (for filamentous fungi) agar plates, which were then incubated at 35° C. for 48 hours to examine colony formation Minimum fungicidal concentration (MFC) was determined to be the lowest drug concentration at which no colonies formed. The assays were performed in triplicate.

[2] = system: Aspergillus fumigatus AF293
Protocol: as §1, §2

[3] = system: Cryptococcus deuterogattii R272; conditions: 35° C.
Protocol: as §1, §2

[4] = system: Candida glabrata CBS138; conditions: Nakaseomyces glabratus, 35° C.
Protocol: as §1, §2

[5] = system: Candida tropicalis MYA3404; conditions: 35° C.
Protocol: as §1, §2

[6] = system: Cryptococcus deuterogattii R265; conditions: 35° C.
Protocol: as §1, §2

[7] = system: Trichophyton rubrum MYA4438
Protocol: as §1, §2

[8] = system: Cryptococcus gattii WM276; conditions: 35° C.
Protocol: as §1, §2

[9] = system: Cryptococcus neoformans H99; conditions: 35° C.
Protocol: as §1, §2

[10] = system: Candida parapsilosis ATCC22019; conditions: Lodderomyces parapsilosis, 35° C.
Protocol: as §1, §2

[11] = system: Candida lusitaniae ATCC42720; conditions: Clavispora lusitaniae, 35° C.
Protocol: as §1, §2

[12] = system: Candida albicans SC5314; conditions: 35° C.
Protocol: as §1, §2

[13] = system: Cryptococcus neoformans T1
Protocol: as §1, §2

## CC1=NN(c2ccc(C)c(C)c2)C(=O)/C1=N\Nc1cccc(-c2cccc(C(=O)O)c2)c1O [eltrombopag]
[1]; 48 hours
  MIC: 64 µg/mL (≈ 145 µM)
[1]; 48 hours on drug-free agar
  MFC: > 64 µg/mL
[2]
  antifungal activity: no antifungal activity
[2]; Aspergillus fumigatus, AF293, 35° C., 48 hours
  MIC: > 64 µg/mL
[2]; Aspergillus fumigatus, AF293, 35° C., 48 hours on drug-free agar
  MFC: > 64 µg/mL
[3]; 48 hours
  MIC: 0.125 µg/mL (≈ 0.283 µM)
[3]; 48 hours on drug-free agar
  MFC: > 64 µg/mL
[4]; CBS138, 48 h, 48 hours
  MIC: ~0.25 µg/mL (≈ 0.565 µM)
[4]; CBS138, 48 hours on drug-free agar
  MFC: > 64 µg/mL
[5]; 48 hours
  MIC: 64 µg/mL (≈ 145 µM)
[5]; 48 hours on drug-free agar
  MFC: > 64 µg/mL
[6]; 48 hours
  MIC: 0.125 µg/mL (≈ 0.283 µM)
[6]; 48 hours on drug-free agar
  MFC: > 64 µg/mL
[7]; MYA4438, 35° C., 48 hours on drug-free agar
  MFC: > 64 µg/mL
[7]; MYA4438, 48 h, 35° C., 48 hours
  MIC: ~0.5 µg/mL (≈ 1.13 µM)
[8]; 48 hours
  MIC: 0.125 µg/mL (≈ 0.283 µM)
[8]; 48 hours on drug-free agar
  MFC: > 64 µg/mL
[9]; 48 hours
  MIC: 0.125 µg/mL (≈ 0.283 µM)
[9]; 48 hours on drug-free agar
  MFC: > 64 µg/mL
[10]; 48 hours
  MIC: 64 µg/mL (≈ 145 µM)
[10]; 48 hours on drug-free agar
  MFC: > 64 µg/mL
[11]; 48 hours
  MIC: 64 µg/mL (≈ 145 µM)
[11]; 48 hours on drug-free agar
  MFC: > 64 µg/mL
[12]; 48 hours
  MIC: > 64 µg/mL
[12]; 48 hours on drug-free agar
  MFC: > 64 µg/mL
[13]; T1, 35° C., 48 hours on drug-free agar
  MFC: > 64 µg/mL
[13]; T1, 48 h, 35° C., 48 hours, azole-resistant strain
  MIC: 0.125 µg/mL (≈ 0.283 µM)
